One assay has as its system inflammatory screens. Nature of the assay: Anti-inflammatory activity, general statements (oral activity, inflammatory screens). The assay is classed as in vivo. Here is the method: Such inflammatory agents typically include oxazolone, and the like. The reverse passive Arthus test offers another measure of the compound's utility in preventing an inflammatory response (Chang et al. Eur. J. Phar. 69:155-164 (1981)). Test compounds are typically administered intraperitoneally or orally. For intraperitoneal administration, the test compound can be given in dimethyl sulfoxide or in 0.5% methylcellulose 30 minutes prior to administration of the irritant. For oral administration, the test compound can be compounded into tablet or capsule form as well as dissolved in, for example, water or ethanol and swallowed prior to application of the irritant. Results can be expressed as the percent decrease in swelling in the compound-treated animals as compared to control animals that receive only the irritant.

Assay [1] concerns reverse passive Arthus reaction. Nature of the assay: Reverse Passive Arthus Reaction (RPA). The assay is classed as in vivo, rat (male SD). The following applies: ip, rat. On the procedure: Male SD rats weighing between 200 and 300 g were used. Test compounds were dissolved in dimethyl sulfoxide and 1 ml/kg of this stock solution (100 mg/ml), on serial dilutions were injected intraperitoneally one hour before administration of the antigen or given orally. The animals were anesthetized inhalationally with isoflurane and then injected through the penile vein with 1 ml of a solution of 2.5 mg of Evan's blue dye and 5.0 mg of human serum albumin in 1 ml of saline. This treatment was followed immediately by intracutaneous injections of 0.075 ml of anti-human albumin diluted to contain 4.38 mg/ml of antibody at 2 sites opposite the midline back. Anesthesia was terminated and after three hours, the animals were sacrificed. The skin was removed and the blue stained areas cut out. The skin patches were soaked overnight in stoppered tubes containing 2 ml of 1N potassium hydroxide at 5° C. Then 9 ml of a mixture of five parts of a 1.2N phosphoric acid and thirteen parts of acetone were added to the tubes. The tube contents were agitated and centrifuged, and the absorbance measured at 620 nm. The data were calculated as inhibition of blueing by test compound compared to control animals receiving only antigen and antibody.

The subject of a further assay is plasma fibrinogen. Nature of the assay: Adjuvant arthritis, plasma fibrinogen inhibition in rats. The assay is classed as in vivo, rat (male Sprague Dawley). The following applies: po, rat; for ED (maximal inhibition) at 100 mg/kg: 0.3 to 100 mg/kg, read-out: AA (p.o.) Dose yielding max inhibition (100 mg/kg).
Assay [2] relates to oxazolone-induced ear edema. Nature of the assay: Inhibition of ear edema caused by oxazolone. The following applies: given orally, mouse, 24 h; dose not given. The class given is in vivo, mouse (CF-1). On the procedure: CF-1 mice, 25-30 g body weight, six animals per group were used. The mice were sensitized to the irritant two weeks prior to the test by dribbling 100 μL of a 3% solution of oxazolone in acetone onto the scrotum of the animal. Test compounds were administered orally at doses of 100 mg/kg and 300 mg/kg for 1 hour prior to oxazolone, intraperitoneally as follows: The test compound was dissolved in dimethyl sulfoxide and doses of 10 mg/kg, 30 mg/kg and 100 mg/kg were injected 15 minutes prior to irritant. The irritant, 3% oxazolone in acetone, was added to the surface of the ear, 5 μl added to the upper surface and 5 μl added to the lower surface. After twenty four hours, the thickness of the ear was measured to 0.01 mm by a micrometer with loose drag, positioned at the lateral-most edge of the mid-point of the pinna. Data were calculated as the inhibition of increased ear thickness compared to control animals' receiving only the irritant. In general, % inhibition of greater than 20% is statistically significant (p<0.05 or less, Student's t-test for unpaired data).

SMILES strings stand for the structures.

For the molecule `O=C(Nc1ccc(C(=O)O)cc1)OCCC1c2ccccc2-c2ccccc21` [Example 7, N-[9H-(Fluorenyl-9-ethoxycarbonyl)]amino-4-benzoic acid], the “activity when taken orally” value in the assay on inflammatory screens is listed as “exhibit activity even when taken orally”. Further, in assay [1], it took a dose of 70 mg/kg to reach the 50% effect level (ED50). In the assay with plasma fibrinogen, the ED (maximal inhibition) at 100 mg/kg is 30 mg/kg. Also, the ED (maximal inhibition) in the assay on plasma fibrinogen (given orally, read-out: dose achieving maximum inhibition of plasma fibrinogen) is 3 mg/kg. In addition, the “inhibition of increased ear thickness (oxazolone)” value in assay [2] was 50%.

In the case of `Cc1ccc2c(c1)C(CCOC(=O)Nc1ccc(C(=O)O)cc1)c1cc(C)ccc1-2` [Example 8, N-[9H-(2,7-Dimethylfluorenyl-9-ethoxycarbonyl)]amino-4-benzoic acid], in the assay on inflammatory screens, the “activity when taken orally” value is listed as “exhibit activity even when taken orally”. In assay [1], this molecule had an ED50 of 100 mg/kg. Besides, the ED (maximal inhibition) at 100 mg/kg in the assay on plasma fibrinogen was determined as 100 mg/kg.

Turning to `O=C(Nc1ccc(C(=O)O)cc1)OCCC1c2cc(Cl)ccc2-c2ccc(Cl)cc21` [Example 9], in the assay on inflammatory screens, the “activity when taken orally” value is reported as “exhibit activity even when taken orally”. In assay [1], this molecule had an ED50 of 34 mg/kg. Further, the ED (maximal inhibition) at 100 mg/kg in the assay on plasma fibrinogen is 3 mg/kg.

Regarding `O=C(Nc1ccc(C(=O)O)cc1)OC1c2ccccc2-c2ccccc21` [N-(9H-fluorenyl-9-oxycarbonyl)-4-aminobenzoic acid], in the assay on inflammatory screens, the “activity when taken orally” value is listed as “exhibit activity even when taken orally”.

As for `O=C(Nc1ccc(C(=O)NS(=O)(=O)c2ccccc2)cc1)OCCC1c2ccccc2-c2ccccc21` [N-{[9H-(fluorenyl-9-ethoxycarbonyl)]-4-amino-benzoyl}-benzenesulfonamide], the “activity when taken orally” value in the assay on inflammatory screens was “exhibit activity even when taken orally”.

The values are drawn from patent US5472973A, “Fluorenyl derivatives as anti-inflammatory agents” (Scios Nova Inc., priority 1992, dated 1995).
